Key:
johnsongrass = assay: Test C postemergence johnsongrass; assay type: in vivo, Sorghum halepense; conditions: 0 to 100 scale, 0 no effect, 100 complete control
Summary of the method: (§1)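 Greenhouse postemergence test: compound applied in solvent/surfactant formulation to established plants; visual scoring 0–100 against untreated controls after roughly two to three weeks (14–21 days).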

redroot pigweed [1] = assay: Test E redroot pigweed; assay type: in vivo, Amaranthus retroflexus; conditions: Preemergence
scentless chamomile = assay: Test E scentless chamomile; assay type: in vivo, Matricaria inodora; conditions: Postemergence
Method: (§2) Compounds evaluated in this test were formulated in a non-phytotoxic solvent mixture which included a surfactant and applied to plants that were in the 1- to 4-leaf stage (postemergence application). A mixture of sandy loam soil and greenhouse potting mix in a 60:40 ratio was used for the postemergence test.
(§3) Plantings of these crops and weed species were adjusted to produce plants of appropriate size for the postemergence test. All plant species were grown using normal greenhouse practices. Crop and weed species include annual bluegrass (Poa annua), blackgrass (Alopecurus myosuroides), black nightshade (Solanum nigra), chickweed (Stellaria media), common poppy (Papaver rhoeas), deadnettle (Lamium amplexicaule), downy brome (Bromus tectorum), field violet (Viola arvensis), galium (Galium aparine), green foxtail (Setaria viridis), Italian ryegrass (Lolium multiflorum), jointed goatgrass (Aegilops cylindrica), kochia (Kochia scoparia), lambsquarters (Chenopodium album), littleseed canarygrass (Phalaris minor), rape (Brassica napus), redroot pigweed (Amaranthus retroflexus), Russian thistle (Salsola kali), scentless chamomile (Matricaria inodora), spring barley (Hordeum vulgare), sugar beet (Beta vulgaris), sunflower (Helianthus annuus), ivyleaf speedwell (Veronica hederaefolia), spring wheat (Triticum aestivum), winter wheat (Triticum aestivum), wild buckwheat (Polygonum convolvulus), wild mustard (Sinapis arvensis), wild oat (Avena fatua), windgrass (Apera spica-venti) and winter barley (Hordeum vulgare).
(§4) Treated plants and untreated controls were maintained in a greenhouse for approximately 21 to 28 days, after which all treated plants were compared to untreated controls and visually evaluated. […] A dash response (-) means no test result.

spring barley = assay: Test E spring barley; assay type: in vivo, Hordeum vulgare; conditions: Preemergence
giant foxtail = assay: Test C postemergence giant foxtail; assay type: in vivo, Setaria faberii; conditions: 0 to 100 scale, 0 no effect, 100 complete control
Summary of the method: as §1

redroot pigweed [2] = assay: Test E redroot pigweed; assay type: in vivo, Amaranthus retroflexus; conditions: Postemergence
Method: as §2, §3, §4

cocklebur = assay: Test C postemergence cocklebur; assay type: in vivo, Xanthium strumarium; conditions: 0 to 100 scale, 0 no effect, 100 complete control
Method: as §2, with “grown for various periods of time before treatment” for “in the 1- to 4-leaf stage”
(§5) Plantings of these crops and weed species were adjusted to produce plants of appropriate size for the postemergence test. All plant species were grown using normal greenhouse practices. Crop and weed species include arrowleaf sida (Sida rhombifolia), barnyardgrass (Echinochloa crus-galli), cocklebur (Xanthium strumarium), common ragweed (Ambrosia elatior), corn (Zea mays), cotton (Gossypium hirsutum), eastern black nightshade (Solanum ptycanthum), fall panicum (Panicum dichotomiflorum), field bindweed (Convolvulus arvensis), giant foxtail (Setaria faberii), hairy beggarticks (Bidens pilosa), ivyleaf morningglory (Ipomoea hederacea), johnsongrass (Sorghum halepense), ladysthumb smartweed (Polygonum persicaria), lambsquarters (Chenopodium album), large crabgrass (Digitaria sanguinalis), purple nutsedge (Cyperus rotundus), redroot pigweed (Amaranthus retroflexus), soybean (Glycine max), surinam grass (Brachiaria decumbens), velvetleaf (Abutilon theophrasti) and wild poinsettia (Euphorbia heterophylla).
(§6) Treated plants and untreated controls were maintained in a greenhouse for approximately 14, to 21 days, after which all treated plants were compared to untreated controls and visually evaluated. Plant response ratings, summarized in Table C, were based upon a 0 to 100 scale where 0 was no effect and 100 was complete control. A dash response (−) means no test result.

galium [3] = assay: Test E galium; assay type: in vivo, Galium aparine; conditions: Preemergence
kochia = assay: Test E kochia; assay type: in vivo, Kochia scoparia; conditions: Preemergence
green foxtail = assay: Test E green foxtail; assay type: in vivo, Setaria viridis; conditions: Postemergence
Method: as §2, §3, §4

common poppy = assay: Test E common poppy; assay type: in vivo, Papaver rhoeas; conditions: Postemergence; for Plant response rating, Comnion poppy: Rate 125 g/ha
Summary of the method: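 Compounds formulated in non-phytotoxic solvent mixture with surfactant; for postemergence, sprayed on plants at 1- to 4-leaf stage grown in 60:40 sandy loam/greenhouse potting mix. Kept in greenhouse ~21 to 28 days, then visually rated against untreated controls.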

velvetleaf = assay: Test C postemergence velvetleaf; assay type: in vivo, Abutilon theophrasti; conditions: 0 to 100 scale, 0 no effect, 100 complete control
Method: as §2, with “grown for various periods of time before treatment” for “in the 1- to 4-leaf stage”
as §5, §6

hairy beggarticks = assay: Test C postemergence hairy beggarticks; assay type: in vivo, Bidens pilosa; conditions: 0 to 100 scale, 0 no effect, 100 complete control
Method: as §2, with “grown for various periods of time before treatment” for “in the 1- to 4-leaf stage”
as §5, §6

jointed goatgrass = assay: Test E jointed goatgrass; assay type: in vivo, Aegilops cylindrica; conditions: Postemergence
Method: as §2, §3, §4

wild buckwheat = assay: Test E wild buckwheat; assay type: in vivo, Polygonum convolvulus; conditions: Postemergence
Method: as §2, §3, §4

field bindweed = assay: Test C postemergence field bindweed; assay type: in vivo, Convolvulus arvensis; conditions: 0 to 100 scale, 0 no effect, 100 complete control
Method: as §2, with “grown for various periods of time before treatment” for “in the 1- to 4-leaf stage”
as §5, §6

galium [4] = assay: Test E galium; assay type: in vivo, Galium aparine; conditions: Postemergence
Method: […] A mixture of sandy loam soil and greenhouse potting mix in a 60:40 ratio was used for the postemergence test.
as §3, §4

[5] = Rate 62 g/ha, 0 to 100 scale, 0 no effect, 100 complete control
[6] = Rate 125 g/ha, 0 to 100 scale (0 no effect, 100 complete control)
[7] = Rate 250 g/ha, 0 to 100 scale (0 no effect, 100 complete control)
[8] = Rate 500 g/ha, 0 to 100 scale where 0 is no effect and 100 is complete control
[9] = Rate 500 g/ha, 0 to 100 scale, 0 no effect, 100 complete control

## CCn1c(=O)on(C(=O)N(c2ccc(F)cc2)C(C)C)c1=O [Compound 107]
johnsongrass; Rate 140 g/ha
  Plant response rating Johnsongrass: 35
johnsongrass; Rate 280 g/ha
  Plant response rating Johnsongrass: 50
johnsongrass; Rate 560 g/ha
  Plant response rating Johnsongrass: 90
johnsongrass; Rate 1120 g/ha
  Plant response rating Johnsongrass: 90
Redroot pigweed [1]; [5]
  Plant response rating, Redroot pigweed: 100
Redroot pigweed [1]; [6]
  Plant response rating, Redroot pigweed: 100
Redroot pigweed [1]; Rate 250 g/ha, 0 to 100 scale
  Plant response rating, Redroot pigweed: 100
Scentless chamomile; Rate 62 g/ha, 0 to 100 scale
  Plant response rating, Scentless chamo: 10
Scentless chamomile; Rate 125 g/ha, 0 to 100 scale
  Plant response rating, Scentless chamo: 0
Scentless chamomile; [7]
  Plant response rating, Scentless chamo: 10
Spring barley; [5]
  Plant response rating, Spring Barley: 30
Spring barley; [6]
  Plant response rating, Spring Barley: 70
Spring barley; Rate 250 g/ha, 0 to 100 scale
  Plant response rating, Spring Barley: 70
Giant foxtail; Rate 280 g/ha
  Plant response rating, Giant foxtail: 70
Giant foxtail; Rate 560 g/ha
  Plant response rating, Giant foxtail: 95
Giant foxtail; Rate 1120 g/ha
  Plant response rating, Giant foxtail: 95
Redroot pigweed [2]; Rate 62 g/ha, 0 to 100 scale
  Plant response rating, Redroot pigweed: 20
Redroot pigweed [2]; Rate 125 g/ha, 0 to 100 scale
  Plant response rating, Redroot pigweed: 10
Redroot pigweed [2]; [7]
  Plant response rating, Redroot pigweed: 20
cocklebur; Rate 140 g/ha
  Plant response rating, Cocklebur: 0
cocklebur; Rate 280 g/ha
  Plant response rating, Cocklebur: 50
Galium [3]; [5]
  Plant response rating, Galium: 50
Galium [3]; [6]
  Plant response rating, Galium: 70
Galium [3]; Rate 250 g/ha, 0 to 100 scale
  Plant response rating, Galium: 100
kochia; [5]
  Plant response rating, Kochia: 50
kochia; [6]
  Plant response rating, Kochia: 60
kochia; Rate 250 g/ha, 0 to 100 scale
  Plant response rating, Kochia: 80
Green foxtail; Rate 62 g/ha, 0 to 100 scale
  Plant response rating, Green foxtail: 20
Green foxtail; Rate 125 g/ha, 0 to 100 scale
  Plant response rating, Green foxtail: 30
Green foxtail; [7]
  Plant response rating, Green foxtail: 85
Common poppy; Rate 62 g/ha, 0 to 100 scale
  Plant response rating, Common poppy: 0
Common poppy; 0 to 100 scale
  Plant response rating, Comnion poppy: 0
Common poppy; [7]
  Plant response rating, Common poppy: 5
velvetleaf; Rate 140 g/ha
  Plant response rating, Velvetleaf: 5
velvetleaf; Rate 280 g/ha
  Plant response rating, Velvetleaf: 60
velvetleaf; Rate 560 g/ha
  Plant response rating, Velvetleaf: 70
velvetleaf; Rate 1120 g/ha
  Plant response rating, Velvetleaf: 75
Hairy beggarticks; Rate 140 g/ha
  Plant response rating H. beggarticks: 5
Hairy beggarticks; Rate 280 g/ha
  Plant response rating H. beggarticks: 60
Hairy beggarticks; Rate 560 g/ha
  Plant response rating H. beggarticks: 70
Hairy beggarticks; Rate 1120 g/ha
  Plant response rating H. beggarticks: 95
Jointed goatgrass; Rate 62 g/ha, 0 to 100 scale
  Plant response rating, Jointed goatgra: 0
Jointed goatgrass; Rate 125 g/ha, 0 to 100 scale
  Plant response rating, Jointed goatgra: 10
Jointed goatgrass; [7]
  Plant response rating, Jointed goatgra: 10
Wild buckwheat; Rate 62 g/ha, 0 to 100 scale
  Plant response rating, Wild buckwheat: 0
Wild buckwheat; Rate 125 g/ha, 0 to 100 scale
  Plant response rating, Wild buckwheat: 0
Wild buckwheat; [7]
  Plant response rating, Wild buckwheat: 10
Field bindweed; Rate 140 g/ha
  Plant response rating Field bindweed: 0
Field bindweed; Rate 280 g/ha
  Plant response rating Field bindweed: 0
Field bindweed; Rate 560 g/ha
  Plant response rating Field bindweed: 30
Field bindweed; Rate 1120 g/ha
  Plant response rating Field bindweed: 60
Galium [4]; Rate 62 g/ha, 0 to 100 scale
  Plant response rating, Galium: 5
Galium [4]; Rate 125 g/ha, 0 to 100 scale
  Plant response rating, Galium: 30
Galium [4]; [7]
  Plant response rating, Galium: 30

## CCn1c(=O)on(C(=O)N(c2ccc(F)cc2F)C(C)C)c1=O [Compound 116]
johnsongrass; Rate 140 g/ha
  Plant response rating Johnsongrass: 10
johnsongrass; Rate 280 g/ha
  Plant response rating Johnsongrass: 40
johnsongrass; Rate 560 g/ha
  Plant response rating Johnsongrass: 60
johnsongrass; Rate 1120 g/ha
  Plant response rating Johnsongrass: 80
Redroot pigweed [1]; [6]
  Plant response rating, Redroot pigweed: 100
Redroot pigweed [1]; Rate 250 g/ha, 0 to 100 scale
  Plant response rating, Redroot pigweed: 100
Redroot pigweed [1]; [8]
  Plant response rating, Redroot pigweed: 100
Scentless chamomile; Rate 62 g/ha, 0 to 100 scale
  Plant response rating, Scentless chamo: 50
Scentless chamomile; Rate 125 g/ha, 0 to 100 scale
  Plant response rating, Scentless chamo: 0
Scentless chamomile; [7]
  Plant response rating, Scentless chamo: 0
Scentless chamomile; [9]
  Plant response rating, Scentless chamo: 40
Spring barley; [6]
  Plant response rating, Spring Barley: 40
Spring barley; Rate 250 g/ha, 0 to 100 scale
  Plant response rating, Spring Barley: 75
Spring barley; [8]
  Plant response rating, Spring Barley: 100
Giant foxtail; Rate 280 g/ha
  Plant response rating, Giant foxtail: 60
Giant foxtail; Rate 560 g/ha
  Plant response rating, Giant foxtail: 60
Giant foxtail; Rate 1120 g/ha
  Plant response rating, Giant foxtail: 85
Redroot pigweed [2]; Rate 62 g/ha, 0 to 100 scale
  Plant response rating, Redroot pigweed: 0
Redroot pigweed [2]; Rate 125 g/ha, 0 to 100 scale
  Plant response rating, Redroot pigweed: 0
Redroot pigweed [2]; [7]
  Plant response rating, Redroot pigweed: 0
Redroot pigweed [2]; [9]
  Plant response rating, Redroot pigweed: 0
cocklebur; Rate 140 g/ha
  Plant response rating, Cocklebur: 0
cocklebur; Rate 560 g/ha
  Plant response rating, Cocklebur: 0
cocklebur; Rate 1120 g/ha
  Plant response rating, Cocklebur: 50
Galium [3]; [6]
  Plant response rating, Galium: 100
Galium [3]; Rate 250 g/ha, 0 to 100 scale
  Plant response rating, Galium: 100
Galium [3]; [8]
  Plant response rating, Galium: 100
kochia; [6]
  Plant response rating, Kochia: 0
kochia; Rate 250 g/ha, 0 to 100 scale
  Plant response rating, Kochia: 85
kochia; [8]
  Plant response rating, Kochia: 70
Green foxtail; Rate 62 g/ha, 0 to 100 scale
  Plant response rating, Green foxtail: 20
Green foxtail; Rate 125 g/ha, 0 to 100 scale
  Plant response rating, Green foxtail: 70
Green foxtail; [7]
  Plant response rating, Green foxtail: 75
Green foxtail; [9]
  Plant response rating, Green foxtail: 75
Common poppy; Rate 62 g/ha, 0 to 100 scale
  Plant response rating, Common poppy: 30
Common poppy; 0 to 100 scale
  Plant response rating, Comnion poppy: 0
Common poppy; [7]
  Plant response rating, Common poppy: 0
Common poppy; [9]
  Plant response rating, Common poppy: 10
velvetleaf; Rate 140 g/ha
  Plant response rating, Velvetleaf: 0
velvetleaf; Rate 280 g/ha
  Plant response rating, Velvetleaf: 0
velvetleaf; Rate 560 g/ha
  Plant response rating, Velvetleaf: 40
velvetleaf; Rate 1120 g/ha
  Plant response rating, Velvetleaf: 80
Hairy beggarticks; Rate 140 g/ha
  Plant response rating H. beggarticks: 80
Hairy beggarticks; Rate 560 g/ha
  Plant response rating H. beggarticks: 90
Jointed goatgrass; Rate 62 g/ha, 0 to 100 scale
  Plant response rating, Jointed goatgra: 30
Jointed goatgrass; Rate 125 g/ha, 0 to 100 scale
  Plant response rating, Jointed goatgra: 20
Jointed goatgrass; [7]
  Plant response rating, Jointed goatgra: 40
Jointed goatgrass; [9]
  Plant response rating, Jointed goatgra: 50
Wild buckwheat; Rate 62 g/ha, 0 to 100 scale
  Plant response rating, Wild buckwheat: 0
Wild buckwheat; Rate 125 g/ha, 0 to 100 scale
  Plant response rating, Wild buckwheat: 0
Wild buckwheat; [7]
  Plant response rating, Wild buckwheat: 0
Wild buckwheat; [9]
  Plant response rating, Wild buckwheat: 0
Field bindweed; Rate 140 g/ha
  Plant response rating Field bindweed: 0
Field bindweed; Rate 280 g/ha
  Plant response rating Field bindweed: 0
Field bindweed; Rate 560 g/ha
  Plant response rating Field bindweed: 50
Field bindweed; Rate 1120 g/ha
  Plant response rating Field bindweed: 50
Galium [4]; Rate 62 g/ha, 0 to 100 scale
  Plant response rating, Galium: 30
Galium [4]; Rate 125 g/ha, 0 to 100 scale
  Plant response rating, Galium: 40
Galium [4]; [7]
  Plant response rating, Galium: 40
Galium [4]; [9]
  Plant response rating, Galium: 70

— patent publication US6737383B1, “Herbicidal oxadiazolidines” (priority 1999, dated 2004)
